Experimental data taken from patent US20140193338A1, “COMPOUNDS FOR USE IN IMAGING, DIAGNOSING AND/OR TREATMENT OF DISEASES OF THE CENTRAL NERVOUS SYSTEM” (PIRAMAL IMAGING SA, priority 2011, published 2014).
Entries after “also recorded” stand apart in the source; their conditions may differ.

Legend:
[1] = Blood radioactivity / metabolite profile by radio-HPLC after tracer injection; format: in vivo, cynomolgus monkey; details: for number of ^18F labelled metabolites detected: plasma, radio-HPLC, over the time of the investigation
Description: In addition, the blood radioactivity profiles have been monitored over time using radio-HPLC measurements and were decay corrected (d.c.) (FIGS. 4 and 5).

MAO-B [2] = assay: PET brain time activity curves (SUV) in cynomolgus monkeys; format: in vivo, cynomolgus monkey
Experimental: One monkey weighing 6.3 kg was injected i.v. with 163 MBq [^18F]rasagiline (compound F) under sevofluorane anaesthesia.
Two cynomolgus monkeys weighting 5.25 and 6.2 kg, respectively were investigated. They were injected i.v. under sevofluorane anaesthesia with 168 MBq and 174 MBq [^18F],(^2H2)rasagiline (1), respectively.

MAO-B [3] = biological target: T1, MAO-B (Homo sapiens, UniProt P27338); assay: Autoradiography with [^18F]rasagiline on human brain sections, blocking with excess inhibitor; format: binding
T1 construct: Autoradiography using [^18F]rasagiline on human brain slices from a healthy subject; from tissue; host or cells: human brain hemisphere cryosections (100 µm)
T1 sequence (P27338 1-520): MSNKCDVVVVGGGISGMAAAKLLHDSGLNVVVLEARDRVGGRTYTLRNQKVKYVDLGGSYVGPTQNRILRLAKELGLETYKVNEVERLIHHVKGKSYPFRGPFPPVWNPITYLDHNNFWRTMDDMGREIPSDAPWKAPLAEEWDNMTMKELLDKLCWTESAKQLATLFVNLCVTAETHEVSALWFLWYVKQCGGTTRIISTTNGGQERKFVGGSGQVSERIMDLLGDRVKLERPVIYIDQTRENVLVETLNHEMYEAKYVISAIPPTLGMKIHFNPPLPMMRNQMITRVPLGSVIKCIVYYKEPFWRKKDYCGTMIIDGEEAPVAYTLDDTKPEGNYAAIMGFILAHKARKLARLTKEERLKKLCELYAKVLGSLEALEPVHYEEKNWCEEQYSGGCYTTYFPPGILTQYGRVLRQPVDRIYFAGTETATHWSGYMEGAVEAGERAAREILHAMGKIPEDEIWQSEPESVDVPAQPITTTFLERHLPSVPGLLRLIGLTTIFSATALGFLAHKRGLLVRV
Experimental: Binding of the [^18F]rasagiline (compound of formula F) was investigated on human brain sections from normal subjects using a standard protocol.
In brief, whole brain hemispheres were cut at a 100 μm thickness in a Cryocut (Leica, Germany), thaw mounted onto gelatine glass slides and kept at −25° C. before use. Thereafter, the slides containing the regions of interest (e.g. hippocampus, thalamus) were removed and brought to room temperature. The sections were incubated with 0.2 MBq/mL [^18F] compound F in 50 mM TRIS/0.1% BSA (pH 7.4) with salts (120 mM NaCl, 5 mM KCl, 1 mM CaCl2, 1 mM MgCl2) for 90 min at room temperature and washed three times for 5 min each in 50 mM TRIS (pH 7.4). The sections were dipped once into ice cold distilled water, dried at room temperature and exposed to PhosphorImager plates (FUJI BAS 5000) overnight.

[4] = pre-treated with 0.5 mg/kg (L)-deprenyl

| SMILES | metabolite corrected blood radioactivity time curve compared to the non-deuterated compound ([1]; decay corrected) | number of ^18F labelled metabolites detected [1] | initial uptake in whole brain relative to [^18F]rasagiline (compound F) (MAO-B [2]; i.v., PET) | decrease in uptake after deprenyl pre-treatment, Cerebellum (MAO-B [2]; [4]) [%] | decrease in uptake after deprenyl pre-treatment, Striatum (MAO-B [2]; [4]) [%] | decrease in uptake after deprenyl pre-treatment, Thalamus (MAO-B [2]; [4]) [%] | decrease in uptake after deprenyl pre-treatment, cortex (MAO-B [2]; [4]) [%] | brain elimination behaviour after initial uptake (MAO-B [2]; whole brain TAC) | specificity of the ligand (MAO-B [3]; conclusion from blocking experiments) | autoradiography signal in brain regions with known MAO-B activity (MAO-B [3]; human brain slices, healthy subject, globus pallidus, putamen, caudate, thalamus, hippocampus, 0.2 MBq/mL, 90 min) | initial brain uptake, striatal (caudate and putamen) and thalamic ROI (MAO-B [2]; i.v., PET) | initial brain uptake, whole brain (MAO-B [2]; i.v., PET) | increase of whole brain signal over time (MAO-B [2]; until the end of the observation time) | whole brain level after slight elimination (MAO-B [2]; within 15 minutes) | blocking of the [^18F]rasagiline (compound F) autoradiography signal (MAO-B [3]; excess (10 μM) of the inhibitor in the incubation solution) |
| --- | --- | --- | --- | --- | --- | --- | --- | --- | --- | --- | --- | --- | --- | --- | --- |
| [2H]C([2H])(C#C)N[C@H]1c2ccccc2C[C@@H]1[18F] [compound 1, (1S,2S)-2-[^18F]fluoro-N-[(1,1-^2H2)prop-2-yn-1-yl]indan-1-amine] | slower elimination; also recorded: increased blood radioactivity over time | two | comparable to that of [^18F]rasagiline (compound F) | 46 | 45 | 47 | 40 | eliminated in a manner resembling that of a reversible ligand | – | – | – | – | – | – | – |
| C#CCN[C@H]1c2ccccc2C[C@@H]1[18F] [compound F, reference compound] | – | eight | – | – | – | – | – | – | specifically interacting with MAO-B | high signal intensity | ca. 400 % SUV | ca. 280 % SUV | about 35 % SUV | ca. 225 % SUV | – |
| C#CCN[C@@H]1CCc2ccccc21 [rasagiline] | – | – | – | – | – | – | – | – | – | – | – | – | – | – | completely blocked |
